Measurements taken from patent US20240092739A1, “COMPOUNDS AND METHODS OF USE” (Ferro Therapeutics, Inc, priority 2020, published 2024).

Columns and labels:
[1] = test system: 786-O (renal cell carcinoma) cells; assay: Cell proliferation (Alamar Blue) assay, 786-O cells; type: cell-based; settings: Homo sapiens, 786-0; 786-O cells, 24 h compound treatment, Alamar Blue; read-out: IC50 (μM) 786-O
Procedure: (§1) Cell viability assay was performed to assess the potency of the compounds in human cancer cell lines 786-0 (renal cell carcinoma) and SJSA-1 (osteosarcoma). Additional cell lines, such as pancreatic cancer cell lines (Panc 02.13, BxPC-3, Panc 12, Panc 02.03, Panc 6.03, PSN-1, HPAC, and Capan-1), prostate cancer cell lines (PC-3, DU145, […], NCI-H660, 1PH1 LNCaP, BM-1604, and MDA PCa 2b), etc., can be tested in a similar method.
(§2) Cells (SJSA-1, 786-0 and A431) were seeded (5000 cells/100 μL/well) in 96-well tissue culture plate and incubated at 37° C./500 CO2 for 16-24 hours. The cells were then treated with compounds (25 μL of 5×). The compound concentrations were 10-0.0005 μM prepared in 3-fold serial dilutions with final DMSO concentration of 1%. The plates were then incubated for 24 h at 37° C./[…] in a moist environment. Then Alamar Blue™ reagent (final concentration 1×-12.5 μL) was added to each well and incubated for 1.5 hours at 37° C./500 CO2. The plates were read on fluorescence reader at 540 nm excitation and 590 nm emission wavelengths. The IC50 values were subsequently determined using a sigmoidal dose-response curve (variable slope) in GraphPad Prism® 5 software. Tables A-3 and B-11 show cell proliferation data for exemplary compounds as described herein.

[2] = test system: A431 cells; assay: Cell proliferation (Alamar Blue) assay, A431 cells; type: cell-based; settings: Homo sapiens, A-431; A431 cells, 24 h compound treatment, Alamar Blue; read-out: IC50 (μM) A431
Procedure: as §1, §2

[3] = test system: SJSA-1 (osteosarcoma) cells; assay: Cell proliferation (Alamar Blue) assay, SJSA-1 cells; type: cell-based; settings: Homo sapiens, 24 h compound treatment
Procedure: as §1, §2

[4] = test system: 786-O cells + Ferrastatin-1; assay: GPX4 inhibition assay: cell proliferation (Alamar Blue) in 786-O cells with ferrostatin rescue; type: cell-based, human; settings: 786-O cells in presence of Ferrastatin-1 (rescue), read-out: IC50 (μM) 786-O + Ferrastatin-1
Procedure: as §2
Studies have shown that lipophilic antioxidants, such as ferrostatin, can rescue cells from GPX4 inhibition-induced ferroptosis. For instance, mesenchymal state GPX4-knockout cells can survive in the presence of ferrostatin, however, when the supply of ferrostatin is terminated, these cells undergo ferroptosis (see, e.g., Viswanathan et al., Nature 547:453-7, 2017). […] Accordingly, the ability of a molecule to induce ferroptotic cancer cell death, and that such ability is admonished by the addition of ferrostatin, is clear indication that the molecule is an GPX4 inhibitor. Cell proliferation data for exemplary compounds with and without ferrostatin can be seen in Table A-3.

SMILES | IC50 [1] | IC50 [2] | IC50 [3] | IC50 [4]
C#CC(=O)N1[C@@H](CCCC)Cc2cc(OC)ccc2[C@H]1c1ccc(NC(=O)C2CCC2)cc1 [Compound B-19, N-(4-((1R,3S)-3-butyl-6-methoxy-2-propioloyl-1,2,3,4-tetrahydroisoquinolin-1-yl)phenyl) cyclobutane carboxamide] | 0.569 µM | 6.3 µM | 0.52 µM | 
C#CC(=O)N1[C@@H](CCCC)Cc2cc(OC)ccc2[C@@H]1c1ccc(NC(=O)C2CCC2)cc1 [Compound B-20, N-{4-[(1S,3S)-3-butyl-6-methoxy-2-(prop-2-ynoyl)-1,2,3,4-tetrahydroisoquinolin-1-yl]phenyl}cyclobutanecarboxamide] | 0.02 µM | 6.14 µM | 0.021 µM | 
C#CC(=O)N1[C@@H](CCCC)Cc2cc(OC)ccc2[C@@H]1c1ccc(NC2CCC2)cc1 [Compound B-22, 1-((1S,3S)-3-butyl-1-(4-(cyclobutylamino)phenyl)-6-methoxy-3,4-dihydroisoquinolin-2(1H)-yl)prop-2-yn-1-one] | 0.041 µM | 9.96 µM | 0.05 µM | 
C#CC(=O)N1[C@@H](CCCC)Cc2cc(OC)ccc2[C@@H]1c1ccc(NC(=O)c2ccnc(C)c2)cc1 [Compound B-49, N-(4-((1S,3S)-3-butyl-6-methoxy-2-propioloyl-1,2,3,4-tetrahydroisoquinolin-1-yl)phenyl)-2-methylisonicotinamide] | 0.037 µM |  | 0.2 µM | 
C#CC(=O)N1[C@@H](CCCC)Cc2cc(OC)ccc2[C@H]1c1ccc(NC23CC4CC(CC(C4)C2)C3)c(C#N)c1 [Compound B-81] | 0.01 µM | 4.9 µM |  | ≥ 10 µM
C#CC(=O)N1[C@@H](CCCC)Cc2cc(OC)ccc2[C@@H]1c1cc(F)c(NC23CC4CC(CC(C4)C2)C3)c(F)c1 [Compound B-82] | 0.024 µM | 1.84 µM |  | 1.71 µM
C#CC(=O)N1[C@@H](CCCC)Cc2cc(OC)ccc2[C@@H]1c1ccc(NC23CC4CC(CC(C4)C2)C3)cc1F [Compound B-83] | 2.79 µM | 7.87 µM |  | 6.59 µM
C#CC(=O)N1[C@@H](CCCC)Cc2cc(OC)ccc2[C@@H]1c1ccc(NC23CC4CC(CC(C4)C2)C3)c(F)c1 [Compound B-84] | 0.037 µM | 0.881 µM |  | 0.056 µM
